Results on one compound are retold here after US7781423B2, “Compounds to promote regeneration of bone marrow” (priority 2007, dated 2010).

Like-named read-outs stand apart in the source and are kept apart here.

For series [1], the system named is MXT mammary tumor. The format is in vivo. The settings on record: MXT tumor-bearing, CP-treated mice, by day 22. The method, then: This experiment was designed to determine whether in a tumor model CC compounds could prevent cyclophosphamide-induced loss of body weight resulting from the depression of blood marrow function. Specified pathogen free (SPF) hygienic category colonies of first generation hybrid BDF1 (C57B1 female×DBA/2 male) adult female mice, weighing 23-24 g, were used. The animals were kept in macrolon cages at 22-24° C. (45-55% humidity), with a lighting regimen of 12/12 h light/dark. […] The animals used in these studies were cared for according to the “Guiding Principles for the Care and Use of Animals” based upon the Helsinki declaration.
MXT mammary tumor pieces (containing about 10^6 tumor cells) were implanted subcutaneously to develop the tumors. After six days when the tumor-bearing mice were first treated, the sizes of the tumors were in the 0.26-0.30 cm^3 range. All compounds used were dissolved in 0.9% sodium chloride and applied subcutaneously (CC compounds) or intraperitoneally (CP) in 50 μl volume. Tumor volume was determined by using calipers in three dimensions; this technique is well known to one having ordinary skill in the art. Tumor volume was calculated according to the generally accepted formula: V=a^2×b×π/6, where “a” and “b” mean the shortest and longest diameter, respectively, of the measured tumor.
In the first group, animals received no treatment. In the second group, mice were administered 120-mg/kg of CP on day 6 followed by seven consecutive daily treatments with the same dose. In the third group, each treatment with CP was associated with administration of 4.5-mg/kg of CCompound1. In the fourth group, each treatment with CP was associated with administration of 4.5-mg/kg of CCompound3. In the fifth group, each treatment with CP was associated with administration of 2.0-mg/kg of CCompound26. Each group included 7 mice. All data represent the average of 7 determinations (one determination with each mouse in the group).

Series [2] can be described thus: MTT cell viability assay. It is filed as cell-based. Conditions: human, read-out: decrease of viability. The method, then: (§1) The NIH 3T3 (normal) mouse fibroblast, A431 human epidermoid adenocarcinoma, and MCF-7 human breast cancer cells were cultured in DMEM medium containing 10% FBS. The MEL-28 human melanoma cells were cultured in MEM medium containing 10% FBS. The HT-29 human colon adenocarcinoma cells were cultured in McCoy's 5a medium containing 10% FBS. The A549 human lung carcinoma cells were maintained in Ham's F12K medium containing 10% FBS. T47D cells were cultured in 12-well plates in RPMI 1640 medium supplemented with 0.2 IU bovine insulin and 10% FBS. CaOV-3 human ovarian cancer cells were cultured in DMEM containing 10% FBS. ZR-75-1 human estrogen receptor-positive breast cancer cells were maintained in RPMI 1640 medium supplemented with 10% FBS. HTB-157 human fetal fibroblasts, MEL-24 human malignant melanoma cells, Hep G2 human hepatoblastoma cells, and CaCO-2 human colon adenocarcinoma cells were maintained in Eagles's MEM containing 10% FBS. MB-231 human estrogen receptor-negative breast cancer cells were maintained in Leibovitz's L-15 medium supplemented with 10% FBS.
In the actual experiments, cells were seeded into 96-well plates and cultivated up to either ˜70-90% confluency (survival experiments) or 20-25% confluency (proliferation experiments). Then the medium was changed for serum-free medium (survival experiment) or 2% serum-containing medium (proliferation experiment). The incubation continued for 72 hours followed by the MTT assay to determine cell viability. This calorimetric assay is based on the ability of living cells, but not dead cells, to reduce 3-(4,5-dimethyl thiazol-2-yl)-2,5-diphenyltetrazolium bromide. Carmichael, J, De Graff, W. G., Gazdar, A. F., Minna, J. D. and Mitchell, J. B., “Evaluation of tetrazolium-based semiautomated calorimetric assay: Assessment of chemosensitivity testing,” Cancer Res., 47, 936-942 (1987).

The test system of series [3] is NIH 3T3, A431, MCF-7, MEL-28, HT-29, A549, T47D, CaOV-3, ZR-75-1, HTB-157, MEL-24, Hep G2, CaCO-2, MB-231 cells. The series is described as follows: MTT survival/proliferation experiments on the panel of normal and cancer cells. The format is cell-based, human, mouse. The settings on record: serum-free (survival) or 2% serum (proliferation); 72 hours; lower and higher (50 μM) concentration. The procedure: as §1
In the actual experiments, cells were seeded into 96-well plates and cultivated up to either ˜70-90% confluency (survival experiments) or 20-25% confluency (proliferation experiments). Then the medium was changed for serum-free medium (survival experiment) or 2% serum-containing medium (proliferation experiment). […]

For series [4], the system named is healthy mice. The experiment in a line: Toxicity in healthy mice. It is filed as in vivo. The settings on record: 1,000-1,500 μmole doses.

On to `Cc1c(OCC(O)C[N+](C)(C)C)cc2c(=O)c3ccccc3sc2c1C.[Cl-]` (stereo not shown) [CCcompound1, [3-(3,4-Dimethyl-9-oxo-9H-thioxanthen-2-yloxy)-2-hydroxypropyl]trimethyl-ammonium chloride], for which, in series [1], the “effect on body weight” value is on record as “body weight gain”. The cytotoxicity at 72 h, 50 μM in series [2] (CaOV-3 ovarian cancer cells), in series [2] (Hep G2 hepatoblastoma cells), in series [2] (MEL-28 melanoma cells) and in series [2] (ZR-75-1 estrogen receptor-positive breast cancer cells) was 20 to 40% throughout. In series [3], the “enhancement of survival or proliferation” value was “Neither the lower nor the higher concentration of CCompound1 enhanced the survival or proliferation”. Also, the “tissue alterations at high doses” value in series [4] is “mild parenchymal degeneration in the heart, focal hypostasis and chronic bronchopneumonia”.
